Earlier results as cited in patent US20040024041A1, “Dermal therapeutic system containing non-steroidal antiphlogistics with selective cox-2 inhibition” (priority 2000, published 2004).

Legend:
[1] = patients receiving rofecoxib therapy vs patients receiving other non-steroidal anti-inflammatory drugs as comparison substance

## CS(=O)(=O)c1ccc(C2=C(c3ccccc3)C(=O)OC2)cc1 [rofecoxib, 3-phenyl-4-[4-methylsulfonylphenyl]-2-(5H)furanone]
After 12 weeks of treatment, rofecoxib 25 or 50 mg/day vs placebo
  percentage of patients with endoscopically detectable gastroduodenal ulcers: comparable percentage
Over 12 and 24 weeks, respectively, vs ibuprofen 2 400 mg/day
  cumulative incidence of gastroduodenal ulcers: significantly less
[1]
  perforations, ulcers and bleeds in the upper gastrointestinal tract: significantly fewer
